# Results reported in US5834494A, “Pyridylcarbamoyl Indolines” (SmithKline Beecham p.l.c., priority 1993, dated 1998).
# Experiment: Geller Seifter Procedure
# Assay type: in vivo
# Settings: dose range 0.5-10 mg/kg p.o.; procedure of WO 94/04533
# Protocol: The compound of example 2 was tested following the procedure outlined in WO 94/04533.
compound,measurement,value
"Cc1cc2c(cc1Cl)N(C(=O)Nc1cccnc1)CC2 [Example 2, 6-Chloro-5-methyl-1-(3-pyridycarbamoyl)indoline]",punished responding,significant increase in punished responding
